Measurements published in paper PMC8629650, “Novel Elongator Protein 2 Inhibitors Mitigating Tumor Necrosis Factor-α Induced Osteogenic Differentiation Inhibition” (BioMed Research International, 2021).
Read-outs that look alike come from different tables or passages of the source.

Columns and labels:
[1] = molecular target: T1, mouse ELP2 protein (Mus musculus, UniProt Q91WG4); assay: Surface plasmon resonance (SPR) affinity analysis, compounds fixed on the chip; type: binding; details: for koff: read-out: Avg Koff; for kon: read-out: Avg Kon; for dissociation rate (in words): excluded from further testing
T1 sequence (Q91WG4 1-831): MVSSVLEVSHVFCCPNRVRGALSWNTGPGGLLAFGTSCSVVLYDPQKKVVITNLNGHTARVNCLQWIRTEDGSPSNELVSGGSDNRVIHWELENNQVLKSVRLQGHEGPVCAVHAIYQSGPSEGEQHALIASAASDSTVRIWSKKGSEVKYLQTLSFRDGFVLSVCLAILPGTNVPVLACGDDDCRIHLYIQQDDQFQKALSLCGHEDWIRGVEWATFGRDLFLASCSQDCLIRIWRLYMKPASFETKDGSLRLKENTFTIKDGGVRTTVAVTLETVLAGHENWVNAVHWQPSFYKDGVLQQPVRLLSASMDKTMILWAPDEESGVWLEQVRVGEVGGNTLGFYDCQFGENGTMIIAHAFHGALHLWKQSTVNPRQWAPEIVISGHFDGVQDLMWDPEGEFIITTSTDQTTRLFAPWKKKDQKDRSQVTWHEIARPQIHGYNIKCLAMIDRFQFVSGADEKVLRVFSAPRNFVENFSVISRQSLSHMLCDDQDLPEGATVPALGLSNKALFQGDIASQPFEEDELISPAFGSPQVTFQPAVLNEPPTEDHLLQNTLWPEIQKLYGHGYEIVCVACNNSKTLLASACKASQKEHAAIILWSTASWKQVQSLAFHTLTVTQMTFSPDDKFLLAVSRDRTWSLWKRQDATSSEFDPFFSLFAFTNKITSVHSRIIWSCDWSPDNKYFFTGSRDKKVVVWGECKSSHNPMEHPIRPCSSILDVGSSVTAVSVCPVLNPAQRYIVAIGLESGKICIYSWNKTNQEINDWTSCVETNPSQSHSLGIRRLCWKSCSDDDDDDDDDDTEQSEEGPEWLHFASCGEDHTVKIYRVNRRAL
Method: To validate the binding affinity of the candidate compounds with ELP2 protein, we tested the binding affinity through SPR assay. The experiment was performed as previous reported. Briefly, the candidate molecules are crossed onto the chip surface by hydrogen substitution reaction. During the experimental SPR, the chips were first primed with running buffer (1x PBS containing 5% DMSO). […] To validate the reliability of our method, we selected biotin and rapamycin binding with FKBP12 as a system control. Additionally, the solvents DMSO for compounds and PBS (pH = 7.0) for proteins were measured individually as blank controls and background noise controls.
Under the technique of photo-cross-linker biosensor chip, the candidate compounds were immobilized onto the chemically modified chip surface in random orientations and without any attached label or linker. After the compounds were fixed onto the surface of the chip, ELP2 protein solved in PBS were passed over the chip surface. The original sensor gram information was collected in real time.
The raw sensor gram information was collected in real time. The binding of each compound to the ELP2 protein during each cycle is represented by the response unit (RU) of surface resonance.

[2] = system: C2C12 cells; assay: Alkaline phosphatase (ALP) activity under TNF-α-induced osteogenic differentiation inhibition, ID model; type: cell-based; details: for effect on TNF-α-induced inhibition of osteoblast differentiation (ALP stain and activity) / EC50: C2C12 cells; for effect on TNF-α-induced inhibition of osteoblast differentiation (ALP stain and activity): vs. TNF-α group; for EC50: Mus musculus, ID model, TNF-α; for effect on TNF-α-induced inhibition (ALP), data not shown: cell model not specified (C2C12 / MC3T3-E1)
Method: (§1) C2C12 cells were kept in DMEM complemented with the 10% fetal dairy serum and 1% penicillin/streptomycin and MC3T3-E1 cells in minimally needed culture medium (MEM, HyClone, GE Healthcare, USA) supplemented with 10% fetal bovine serum and 1% penicillin/streptomycin, were grown individually, and then cultured at 37.0°C, 5% CO2. As previously reported, cells were cultured for differentiation induction in the presence of TNF-α with or without our candidate compounds.
(§2) […] was detected by ALP activity via the alkaline phosphatase assay kit followed by the instruction. A BioTek microplate spectrophotometer was used to assay the apparent density at the wavelength of 405 nm. ALP activity values are equally common in the density protein found in stem cells determined to use the BCA Protein Assay Kit.
(§3) To determine the effect of the candidate compounds on TNF-α-induced osteogenic differentiation inhibition, we examined the activity of osteogenic marker alkaline phosphatase in the cells. As mentioned in Materials and Method, cells were grown in an adequate osteoblast differentiation environment and tested the alkaline phosphatase activity.
(§4) Figure 3 The ALP stain and activity measurements of 2# and 5# candidate on C2C12 and MC3T3-E1 cell osteogenic differentiations. 2# and 5# compounds show remarkable mitigation against TNF-α induced ALP activity inhibition. The ALP staining observation in each group (a, c). The relative ALP activity were measured from the cell lysates of each group (b, d). Data are mean ± SD; ^∗P < 0.05, ^∗∗P < 0.01, each experiment group vs. the TNF-α treatment cell group.

[3] = system: MC3T3-E1 cells; assay: Alkaline phosphatase (ALP) activity under TNF-α-induced osteogenic differentiation inhibition, SD model; type: cell-based; details: for EC50: Mus musculus, SD model, TNF-α; for effect on TNF-α-induced inhibition of osteoblast differentiation (ALP stain and activity): vs. TNF-α group
Method: as §1, §2, §3, §4

[4] = system: C2C12 cells; assay: Mineralization assessment by Alizarin Red S staining; type: cell-based; details: day 35, vs. TNF-α control
Description: (§5) As reported, in two differentiation cell models, the culture medium was replaced every 3 days till 35th day. Mineralization of the cell was found by staining using the Optimized Alizarin Red S Stain Kit by the kit instructions.
(§6) In order to test the function of the candidate compounds on the mineralization activity during osteoblasts differentiation, the self-differentiation (SD) model and inflammatory-differentiated (ID) model cells were stained with Alizarin Red S staining on day 35 after differentiation induction, and the mineralization activity of each group can be estimated by the number of stained spots.
(§7) Figure 5 Alizarin Red S staining of differentiated osteogenic cells, the self-differentiation (SD) model, and inflammatory-differentiated (ID) model cells were stained with Alizarin Red S staining on day 35 after differentiation induction, and the mineralization activity of each group can be estimated by the number of stained spots (bar = 50 μm).

[5] = system: MC3T3-E1 cells; assay: as above; type: cell-based; details: day 35, vs. TNF-α control
Description: as §5, §6, §7

[6] = system: COL-I, ALP, OCN, BMP-2, RUNX-2 and OSX genes in C2C12 and MC3T3-E1 cells; assay: Q-PCR of osteogenic differentiation marker genes after TNF-α stimulation; type: cell-based; details: day 7, C2C12 and MC3T3-E1, vs. TNF-α-stimulated cells
Method: The total mRNA was extracted from cell culture using TRIzol reagent (Thermo Scientific USA). The concentration and quality of the RNA were checked using a NanoDrop™ 8000 spectrophotometer, and cDNA was then synthesized. Gene expression according to the recommendations of the reverse transcription kit was detected. Host gene β-actin was selected as the reference gene, and the gene expression level analysis was calculated by the 2^-ΔΔCt quantification method.
(§8) In order to investigate the changes in osteogenic differentiation associated molecules including COL-I, ALP, OCN, BMP-2, RUNX-2, and OSX genes, we performed Q-PCR and Western blot analysis on the differentiation cellular models on the 7th day after osteoblast cell differentiation are shown in Table 2. […] The level of above gene expression was raised in the 2# and the 5# candidate-treated cell with cell morphology phenotype differentiation when compared to the cell stimulated with TNF-α (Figure 6). A further study of the expression of osteoblastic markers at the protein level was performed using Western blot.
Figure 6 Effect of 2# and 5# treatment on TNF-α-stimulated C2C12 (a) and MC3T3-E1 (b) cell osteoblast differentiation-associated marker gene expression. Q-PCR analysis in the differentiation was conducted on the 7th day after osteoblast cell differentiation in the ID and SD models. […]

[7] = system: osteogenic differentiation marker proteins in differentiation model cells; assay: Western blot of osteogenic differentiation markers after TNF-α treatment; type: cell-based; details: day 7, vs. TNF-α treatment
Method: After treatment, using PBS to wash the cells, the cells were lysed with RIPA lysis buffer. The cell lysate was then separated by SDS-PAGE. All proteins were transferred to PVDF membranes (Bio-Rad, USA). The PVDF membrane was then blocked with 5% skim milk in Tris-buffered physiological saline -0.1% Tween-20 for 1 hour and incubated with the following primary antibody: anti-ALP antibody (rabbit), anti-COL-1 antibody (mouse), anti-OCN antibody (mouse), anti-BMP-2 antibody (mouse), anti-Runx2 antibody (mouse), Anti-Osterix (rabbit), and anti-β-actin (mouse), followed by suitable horseradish peroxidase- (HRP-) labeled secondary antibody, blocking buffer for goat anti-rabbit IgG. Images were captured using G&E imaging system.
as §8, with “blot. […]” for “blot.”

[8] = SPR, Elp2 protein 200 nM to 3200 nM passed over the immobilized compound, read-out: Avg KD
[9] = SPR, Elp2 protein 200 nM to 3200 nM passed over the immobilized compound

Row | SMILES | Kd [1, 8] [µM] | koff [1, 9] [s⁻¹] | kon [1, 9] [M⁻¹ s⁻¹] | also measured
1 | COc1cc(CCN)c(-c2csc(-c3ccc(O)cc3)n2)cc1OC [5#] | 3.28 | 0.0122 | 3720 | effect on TNF-α-induced inhibition of osteoblast differentiation (ALP stain and activity) [2]: significant ease to TNF-α-induced inhibition of osteoblast differentiation; EC50 [2]: 12.2 µM; EC50 [3]: 18.2 µM; effect on TNF-α-induced inhibition of osteoblast differentiation (ALP stain and activity) [3]: significant ease to TNF-α-induced inhibition of osteoblast differentiation; mineralization activity (Alizarin Red S stained spots) [4]: increased the red spot on the cell surface; mineralization activity (Alizarin Red S stained spots) [5]: increased the red spot on the cell surface; expression level of osteogenic differentiation marker genes (COL-I, ALP, OCN, BMP-2, RUNX-2, OSX) [6]: raised; expression of osteogenic differentiation marker proteins [7]: increased
2 | Cc1cc(O)cc(=O)n1C[C@@H](O)c1cccc(O)c1 [11#] | 3.48 | 0.000774 | 222 | effect on TNF-α-induced inhibition (ALP), data not shown [2]: only slightly easing of the inhibition resulting from TNF-α
3 | Cc1cc(=O)c2c(o1)[C@H](c1cccc(O)c1)CC(=O)O2 [3#] | – | 0.45 | 2.31 | –
4 | O=C1c2ccccc2-c2c1c1ccccc1c(=O)n2NCCO [2#] | 1.46 | 0.000241 | 165 | effect on TNF-α-induced inhibition of osteoblast differentiation (ALP stain and activity) [2]: significant ease to TNF-α-induced inhibition of osteoblast differentiation; EC50 [2]: 14.7 µM; EC50 [3]: 29.7 µM; effect on TNF-α-induced inhibition of osteoblast differentiation (ALP stain and activity) [3]: significant ease to TNF-α-induced inhibition of osteoblast differentiation; mineralization activity (Alizarin Red S stained spots) [4]: increased the red spot on the cell surface; mineralization activity (Alizarin Red S stained spots) [5]: increased the red spot on the cell surface; expression level of osteogenic differentiation marker genes (COL-I, ALP, OCN, BMP-2, RUNX-2, OSX) [6]: raised; expression of osteogenic differentiation marker proteins [7]: increased
5 | COc1cccc(N2Cc3nn(Cc4ccccc4Cl)c(=O)n3C2=O)c1 [6#] | – | 0.415 | 2.54 | –
6 | Cc1cc(O)cc(=O)n1C[C@H](O)c1ccc(O)cc1 [9#] | 149 | 0.075 | 502 | dissociation rate (in words) ([1]; SPR): much faster dissociation rates
7 | COc1ccc([C@H](CC(=O)N[C@@H](Cc2ccccc2)C(N)=O)c2oc(C)cc(=O)c2O)cc1 [1#] | 118 | 0.234 | 1980 | dissociation rate (in words) ([1]; SPR): much faster dissociation rates
8 | COc1ccc(C(CC(=O)NC(C)C(N)=O)c2oc(C)cc(=O)c2O)cc1 (centres unmarked) [7#] | – | – | – | Kd [1]: 3.17 µM; koff [1]: 0.0011 s⁻¹; kon [1]: 347 M⁻¹ s⁻¹; effect on TNF-α-induced inhibition (ALP), data not shown [2]: only slightly easing of the inhibition resulting from TNF-α
9 | COCn1ncnc1NCCn1c(C)cc(O)cc1=O [4#] | – | 0.342 | 1.85 | –
10 | COc1ccc2c(c1)C(CCn1c(C)cc(O)cc1=O)C(=O)N2 (centres unmarked) [10#] | – | 0.504 | 2.18 | –
11 | CC1CCCC2(C)CC3OC(=O)C(CN4CCN(C(=O)c5ccco5)CC4)C3C=C12 (centres unmarked) [8#] | 0.0936 | 0.00105 | 11200 | effect on TNF-α-induced inhibition (ALP), data not shown [2]: only slightly easing of the inhibition resulting from TNF-α
